Reference: PMC11774245 (Journal of Natural Products, 2025)

Key:
CB2 receptor = molecular target: T1, CB2 receptor (Homo sapiens, UniProt P34972); experiment: radioligand displacement of [3H]-CP55940 on membranes; type: binding; conditions: read-out: % inhibition at 10 μM; none at 1 μM %
T1 construct: gene CNR2

5-HT1A receptor = molecular target: T2, 5-HT1A receptor (Homo sapiens, UniProt P08908); experiment: radioligand displacement of [3H]-8-hydroxy-DPAT on membranes; supported by PathHunter β-arrestin PAM assay in CHO-K1 cells with human 5-HT1A; type: binding; conditions: read-out: % inhibition at 10 μM; 20% at 1 μM %
T2 construct: gene HTR1A
T2 sequence (P08908 1-422): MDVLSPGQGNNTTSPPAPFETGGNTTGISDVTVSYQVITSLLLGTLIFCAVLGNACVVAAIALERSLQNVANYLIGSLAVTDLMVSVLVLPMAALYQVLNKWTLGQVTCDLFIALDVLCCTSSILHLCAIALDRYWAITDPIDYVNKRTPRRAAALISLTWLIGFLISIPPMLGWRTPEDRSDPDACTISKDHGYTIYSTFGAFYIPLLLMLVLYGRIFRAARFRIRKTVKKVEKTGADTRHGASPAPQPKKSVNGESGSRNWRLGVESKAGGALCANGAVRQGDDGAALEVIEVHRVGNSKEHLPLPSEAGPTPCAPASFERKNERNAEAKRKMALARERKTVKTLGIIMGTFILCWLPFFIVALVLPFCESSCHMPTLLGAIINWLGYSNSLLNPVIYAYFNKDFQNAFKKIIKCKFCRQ

T1 sequence (P34972 whole entry): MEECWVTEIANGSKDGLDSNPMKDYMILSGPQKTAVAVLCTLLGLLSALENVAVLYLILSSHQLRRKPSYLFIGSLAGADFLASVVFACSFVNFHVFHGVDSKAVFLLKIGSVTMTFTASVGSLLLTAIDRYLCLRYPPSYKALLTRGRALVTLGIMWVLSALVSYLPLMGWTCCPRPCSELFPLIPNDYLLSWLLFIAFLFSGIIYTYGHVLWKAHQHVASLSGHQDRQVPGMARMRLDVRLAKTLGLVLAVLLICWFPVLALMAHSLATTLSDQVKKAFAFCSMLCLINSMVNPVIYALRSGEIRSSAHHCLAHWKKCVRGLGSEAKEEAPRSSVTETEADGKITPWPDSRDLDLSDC

CCCCCc1cc(O)c2c(c1)OC1(C)CCC3C1C2C3(C)C (racemic) [(±)-CBL]
inhibition at 10 µM (CB2 receptor): 68% | inhibition at 10 µM (5-HT1A receptor): 75%
